According to patent publication US20050288347A1, “Certain triazole-based compounds, compositions, and uses thereof” (priority 2004, published 2005):
“Also recorded” adds a separate entry of the source.

Molecular target: protein kinase
Test: HTS ATP-utilizing enzyme assay, off-chip mobility-shift format (Caliper HTS 250)
Format: biochemical, human
Conditions: kinase(s) for which the compound exhibits protein kinase inhibitory activity; test compound 10 μM; active = greater than three-sigma from the mean activity of inactive compounds
Outline: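 Single-point screen at 10 μM compound in HEPES pH 7.5 buffer with Triton X-100 and BSA, 2.5 h at 20–22 °C. Substrate-to-phosphopeptide ratio measured by off-chip microfluidic mobility shift; EDTA wells as 100% and DMSO wells as 0% control, hits called at three-sigma limits.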

| SMILES | Kinase |
| --- | --- |
| CCn1c(S)nnc1-c1cc2ccccc2cc1O [3-(4-ethyl-5-mercapto-4H-1,2,4-triazol-3-yl)naphthalen-2-ol] | AURORA-A |

Same assay, conditions: test compound 10 μM; active = activity greater than three-sigma from the mean of the predominately inactive population for that enzyme

| SMILES | protein kinase against which the compound exhibits inhibitory activity (Table 3) |
| --- | --- |
| COc1ccc(-c2nnc(SCc3ccc(Cl)cc3)n2-c2ccccc2)cc1OC [3-(4-chlorobenzylthio)-5-(3,4-dimethoxyphenyl)-4-phenyl-4H-1,2,4-triazole] | CDK1 |
| Cn1c(SCc2ccc(Cl)c(Cl)c2)nnc1-c1ccc(Cl)cc1 [3-(4-chlorophenyl)-5-(3,4-dichlorobenzylthio)-4-methyl-4H-1,2,4-triazole] | PRAK and FYN |
| Fc1ccc(CSc2nnc(-c3ccc(OC(F)(F)F)cc3)[nH]2)cc1 [3-(4-fluorobenzylthio)-5-(4-(trifluoromethoxy)phenyl)-4H-1,2,4-triazole] | FLT-3; also recorded: AURORA-A |
| Fc1ccc(CSc2nnc(-c3cccs3)[nH]2)cc1 [3-(4-fluorobenzylthio)-5-(thiophen-2-yl)-4H-1,2,4-triazole] | AURORA-A; also recorded: FLT-3; also recorded: DYRK2 |
| OCC(O)CSc1nnc(-c2cccc(C(F)(F)F)c2)[nH]1 (centres unmarked) [3-(5-(3-(trifluoromethyl)phenyl)-4H-1,2,4-triazol-3-ylthio)propane-1,2-diol] | AURORA-A; also recorded: FLT-3; also recorded: CHEK2 |
| OCC(O)CSc1nnc(-c2cccc(Cl)c2)[nH]1 (centres unmarked) [3-(5-(3-chlorophenyl)-4H-1,2,4-triazol-3-ylthio)propane-1,2-diol] | AURORA-A; also recorded: FLT-3; also recorded: CHEK2 |
| COc1ccc(-c2nnc(SCC(O)CO)[nH]2)cc1 (centres unmarked) [3-(5-(4-methoxyphenyl)-4H-1,2,4-triazol-3-ylthio)propane-1,2-diol] | AURORA-A; also recorded: FLT-3; also recorded: DYRK2 |
| O=[N+]([O-])c1ccc(-c2nnc(SCC(O)CO)[nH]2)cc1 (centres unmarked) [3-(5-(4-nitrophenyl)-4H-1,2,4-triazol-3-ylthio)propane-1,2-diol] | AURORA-A; also recorded: FLT-3; also recorded: DYRK2 |

More lines, now with the values ahead:

| protein kinase against which the compound exhibits inhibitory activity (Table 3) | SMILES |
| --- | --- |
| AURORA-A | COc1ccc(Cc2nnc(SCc3cccc4ccccc34)[nH]2)cc1 [3-(4-methoxybenzyl)-5-(naphthalen-1-ylmethylthio)-4H-1,2,4-triazole] |
| FLT-3 | COc1ccc(-c2nnc(SCc3ccc(S(C)(=O)=O)cc3)[nH]2)cc1 [3-(4-methoxyphenyl)-5-(4-(methylsulfonyl)benzylthio)-4H-1,2,4-triazole] |
| MSK2 and SRC | O=[N+]([O-])c1ccc(CSc2nnc[nH]2)cc1 [3-(4-nitrobenzylthio)-4H-1,2,4-triazole] |
| AURORA-A | O=C(O)CCSc1nnc(-c2cccnc2)n1-c1ccccc1 [3-(4-phenyl-5-(pyridin-3-yl)-4H-1,2,4-triazol-3-ylthio)propanoic acid] |
| MAPKALPK-2 and AKT1 | COCCCn1c(C)nnc1SCc1ccc(C(C)(C)C)cc1 [3-(4-tert-butylbenzylthio)-4-(3-methoxypropyl)-5-methyl-4H-1,2,4-triazole] |
| AURORA-A | CCOCCSc1nnc(-c2cccnc2)[nH]1 [3-(5-(2-ethoxyethylthio)-4H-1,2,4-triazol-3-yl)pyridine] |
| CHEK2 | Cn1c(SCc2ccc(Cl)cc2)nnc1-c1cccnc1 [3-(5-(4-chlorobenzylthio)-4-methyl-4H-1,2,4-triazol-3-yl)pyridine] |
| MAPKAPK-2 | CCn1c(SCc2ccc(C(C)(C)C)cc2)nnc1-c1cccnc1 [3-(5-(4-tert-butylbenzylthio)-4-ethyl-4H-1,2,4-triazol-3-yl)pyridine] |
